In PMC11352945, “Anticancer Activity of Benzo[a]phenoxazine Compounds Promoting Lysosomal Dysfunction” (Cells, 2024):
In brackets after ≈: the same amount, converted by molar mass. Read-outs that look alike come from different tables or passages of the source.

Experiments:
[1] = tested on: RKO cells; test: Sulforhodamine B (SRB) cell viability assay, RKO; format: cell-based; settings: Homo sapiens, CRC cell line, 48 h, read-out: IC50 (μM) ± SD, RKO
Protocol: (§1) The cells were allowed to adhere overnight, from 12 h to 18 h, and then treated with increasing concentrations of each compound, C9, A36, and A42 (0.125 μM, 0.25 μM, 0.5 μM, 1 μM, 2.5 μM, and 5 μM), in their respective culture mediums for 48 h. In addition to a negative control that consisted only of cells and growth medium, a negative control containing the highest concentration of the solvent in which the compound was dissolved (DMSO 0.1%) was also used. The SRB assay was performed according to Marques et al.. The IC50 values were obtained using GraphPad Prism version 8.2.1 through the application of a sigmoidal dose–response nonlinear regression, after logarithmic transformation. The selectivity index was determined by dividing the IC50 value of the non-neoplastic BJ-5ta cell line by the IC50 value of the cancer cell lines (IC50 BJ-5ta/IC50 cancer cell line); furthermore, for the CRC model, a second selectivity index was also determined using the non-neoplastic NCM460 cell line (IC50 NCM460/IC50 CRC cell line). According to the results of the selectivity index, the cell line with the highest selectivity value for each of the models, CRC and breast, was selected for subsequent characterization.
(§2) Three CRC-derived cell lines, SW480 (KRAS^G12V), HCT116 (KRAS^G13D), and RKO (BRAF^V600E), harboring somatic mutations on KRAS or BRAF, and two breast-cancer-derived cell lines, MDA-MB-231 (basal like) and MCF7 (luminal A subtype), together with two non-neoplastic cell lines, NCM460 (normal colon mucosal epithelial cell line) and BJ-5ta (normal foreskin fibroblast cell line), were used to study the activity and selectivity of the three new benzo[a]phenoxazine compounds, C9, A36, and A42. All cell lines were treated with a range of drug concentrations (0.125 μM, 0.25 μM, 0.5 μM, 1 μM, 2.5 μM, and 5 μM) for 48 h, and the effect on cell viability was assessed using a sulforhodamine B assay (SRB) (Figure 2). […] In addition, the selectivity index was determined using the BJ-5ta cell line as a reference, as well as the NCM460 cell line for the CRC model (Table 1).

[2] = tested on: BJ-5ta cells; test: Sulforhodamine B (SRB) cell viability assay, BJ-5ta; format: cell-based; settings: Homo sapiens, non-neoplastic cell line, 48 h, read-out: IC50 (μM) ± SD, BJ-5ta
Protocol: as §1, §2

[3] = tested on: MDA-MB-231 cells; test: Sulforhodamine B (SRB) cell viability assay, MDA-MB-231; format: cell-based, human; settings: for IC50: Homo sapiens, MDA-MB-231, breast cancer cell line, 48 h, SRB, read-out: IC50 (μM) ± SD, MDA-MB-231; for Selectivity Index Cell Line IC50/BJ-5ta IC50: MDA-MB-231 versus BJ-5ta
Protocol: as §1
Three CRC-derived cell lines, SW480 (KRAS^G12V), HCT116 (KRAS^G13D), and RKO (BRAF^V600E), harboring somatic mutations on KRAS or BRAF, and two breast-cancer-derived cell lines, MDA-MB-231 (basal like) and MCF7 (luminal A subtype), together with two non-neoplastic cell lines, NCM460 (normal colon mucosal epithelial cell line) and BJ-5ta (normal foreskin fibroblast cell line), were used to study the activity and selectivity of the three new benzo[a]phenoxazine compounds, C9, A36, and A42. All cell lines were treated with a range of drug concentrations (0.125 μM, 0.25 μM, 0.5 μM, 1 μM, 2.5 μM, and 5 μM) for 48 h, and the effect on cell viability was assessed using a sulforhodamine B assay (SRB) (Figure 2). The results were used to determine the IC50 value of each compound for all the cell lines (Table 1). In addition, the selectivity index was determined using the BJ-5ta cell line as a reference, as well as the NCM460 cell line for the CRC model (Table 1).

[4] = tested on: MCF7 cells; test: Sulforhodamine B (SRB) cell viability assay, MCF7; format: cell-based; settings: Homo sapiens, breast cancer cell line, 48 h, read-out: IC50 (μM) ± SD, MCF7
Protocol: as §1, §2

[5] = tested on: HCT116 cells; test: Sulforhodamine B (SRB) cell viability assay, HCT116; format: cell-based; settings: Homo sapiens, HCT-116, CRC cell line, 48 h, read-out: IC50 (μM) ± SD, HCT116
Protocol: as §1, §2

[6] = tested on: RKO cells; test: Annexin V/PI assay (flow cytometry), RKO; format: cell-based, human; settings: 2 × IC50 and 4 × IC50, 48 h
Protocol: (§3) RKO and MCF7 cells were seeded in 12-well plates at a density of 1 × 10^5 cells/mL. After 24 h, the cells were treated with C9, A36, and A42 at 2 × IC50 and 4 × IC50 concentrations or 0.1% DMSO (vehicle). Untreated cells were used as controls. After 48 h, floating and adherent cells were collected. The cells were resuspended in […] of binding buffer and treated for 15 min in the dark with 5 μL of Annexin V-FITC (Detection Kit-ab14085) and 5 μL of Propidium Iodide (50 μg/mL). The samples were subjected to flow cytometry analysis, PI fluorescence was detected using the ECD-A channel, and Annexin V fluorescence was detected using the FITC-A channel.
(§4) One of the main goals of clinical oncology is the development of compounds and treatments capable of selectively eliminating cancer cells. In this sense, we next evaluated the capability of the compounds to induce cell death in both cell lines. For this, we performed a flow cytometry analysis using annexin V-FITC and propidium iodide PI double staining. The conjugation of these two probes allowed for the discrimination of viable (negative for both), early apoptotic (annexin + and PI−), late apoptotic (annexin+ and PI+), and necrotic (annexin− and PI+) cells. […] Both flouting and attached cells were harvested and double stained.

[7] = tested on: MCF7 cells; test: Annexin V/PI assay (flow cytometry), MCF7; format: cell-based, human; settings: MCF7, 2 × IC50 and 4 × IC50, 48 h
Protocol: as §3, §4

[8] = tested on: S. cerevisiae; settings: yeast S. cerevisiae, microdilution; cited from earlier work
[9] = tested on: NCM460 cells; test: Sulforhodamine B (SRB) cell viability assay, NCM460; format: cell-based; settings: Homo sapiens, non-neoplastic cell line, 48 h, read-out: IC50 (μM) ± SD, NCM460
Protocol: as §1, §2

[10] = tested on: MCF7 cells; test: Colony formation assay, MCF7; format: cell-based, human; settings: MCF7, IC50/2, 48 h treatment
Protocol: (§5) A colony formation assay was conducted on the RKO and MCF7 cell lines. In 6-well plates, 600 cells/mL and 800 cells/mL RKO and MCF7 cells, respectively, were seeded. Adherent cells were treated with the compounds C9, A36, and A42 at IC50/2 and IC50 concentrations or 0.1% DMSO (vehicle). As a control, untreated cells were used. Following a 48 h incubation period, the cells were twice rinsed with PBS 1× before being supplemented with new medium. After that, the cells were given 10–14 days to grow (new medium was added every 3 days). Following a PBS 1× rinse, the colonies were fixed for 30 min using 0.5% crystal violet and 6% glutaraldehyde. The ImageJ software (V1.53) was used to calculate the number of colonies. The percentage of colonies was determined and normalized for the untreated control.

[11] = tested on: SW480 cells; test: Sulforhodamine B (SRB) cell viability assay, SW480; format: cell-based; settings: Homo sapiens, CRC cell line, 48 h, read-out: IC50 (μM) ± SD, SW480
Protocol: as §1, §2

[12] = tested on: RKO cells; test: Colony formation assay, RKO; format: cell-based, human; settings: 10-14 days growth
Protocol: as §5

[13] = tested on: RKO cells; test: Cell proliferation by CFSE (flow cytometry), RKO; format: cell-based, human; settings: IC50 and 2 × IC50, 24 h, 48 h, 72 h
Protocol: (§6) RKO and MCF7 cell proliferation was evaluated through flow cytometry using the Carboxyfluorescein Diacetate Succinimidyl Ester (CFSE) probe. Confluent cells were collected, rinsed with PBS 1×, and incubated with 5 μM of CFSE for 15 min at 37 °C. Then, the cells were rinsed, resuspended in growth medium, and seeded in 12-well plates at 1 × 10^5 cells/mL. After 24 h, adherent cells were treated with compounds C9, A36, and A42 at IC50 and 2 × IC50 concentrations or 0.1% DMSO (vehicle). Untreated cells were used as controls. The cells were harvested at different time points of 0 h, 24 h, […], and 72 h. The cells were then analyzed in a flow cytometer and the CFSE median fluorescence intensity was quantified using the FITC-A channel. All median values were normalized to the time point 0 h.
(§7) The benzo[a]phenoxazines C9, A36, and A42 were tested for their capacity to decrease cell growth using an optimized flow cytometry Carboxyfluorescein Diacetate Succinimidyl Ester (CFSE) labeling procedure. This procedure enables the differentiation of successive rounds of cell division, since the CFSE probe is uniformly distributed among daughter cells during cell division. As a result, a decrease in green CFSE fluorescence was employed as an indicator of cell proliferation.

[14] = tested on: MCF7 cells; test: Cell proliferation by CFSE (flow cytometry), MCF7; format: cell-based, human
Protocol: as §6, §7

[15] = tested on: NCM460 cells; design: method as in PMID 36614056; settings: lead compound, non-neoplastic cell line; read-out: IC50 (μM) ± SD, NCM460; cited from earlier work
[16] = tested on: RKO cells; design: method as in PMID 36614056; settings: lead compound, CRC cell line; read-out: IC50 (μM) ± SD, RKO; cited from earlier work
[17] = tested on: MDA-MB-231 cells; design: method as in PMID 36614056; settings: lead compound, breast cancer cell line; read-out: IC50 (μM) ± SD, MDA-MB-231; cited from earlier work
[18] = tested on: BJ-5ta cells; design: method as in PMID 36614056; settings: lead compound, non-neoplastic cell line; read-out: IC50 (μM) ± SD, BJ-5ta; cited from earlier work
[19] = tested on: HCT116 cells; design: method as in PMID 36614056; settings: lead compound, CRC cell line; read-out: IC50 (μM) ± SD, HCT116; cited from earlier work
[20] = tested on: MCF7 cells; design: method as in PMID 36614056; settings: lead compound, breast cancer cell line; read-out: IC50 (μM) ± SD, MCF7; cited from earlier work
[21] = tested on: SW480 cells; design: method as in PMID 36614056; settings: lead compound, CRC cell line; read-out: IC50 (μM) ± SD, SW480; cited from earlier work

IC50 [3]	IC50 [4]	IC50 [5]	IC50 [11]	Compound	IC50 [1]	IC50 [2]	Selectivity Index Cell Line IC50/BJ-5ta IC50 [3]	MIC (minimum inhibitory concentration) [8]	IC50 [9]	Colonies detected [10]	other results
0.79 ± 0.03 µM	0.54 ± 0.02 µM	1.13 ± 0.07 µM	0.78 ± 0.07 µM	ClCCCN=c1cc2oc3c4c5c(cc3nc-2c2ccccc12)CCCN5CCC4 [A42]	0.29 ± 0.01 µM	2.58 ± 0.19 µM	3.26	0.78 µM (≈ 0.326 µg/mL)	2.59 ± 0.31 µM	reduced number of small colonies	Cell death induction (Annexin V/PI) [6]: most powerful compounds; Cell death induction (Annexin V/PI) [7]: most powerful compounds; Reduction of the colonies formed ([12]; IC50, 48 h treatment): > 90%; Reduction of the colonies formed ([12]; IC50/2, 48 h treatment): more than 75%
1.01 ± 0.09 µM	0.63 ± 0.05 µM	1.28 ± 0.06 µM	0.72 ± 0.03 µM	CCCNc1cc2oc3cc(=[N+](CCC)CCC)ccc-3nc2c2ccccc12 [A36]	0.37 ± 0.03 µM	2.44 ± 0.18 µM	2.41	1.56 µM	2.06 ± 0.25 µM	reduced number of small colonies	Effect on cell proliferation (CFSE) [13]: highest effect; CFSE median fluorescence normalized to T0 ([14]; MCF7, 2 × IC50, 24 h (untreated 37%)): 62%; CFSE median fluorescence normalized to T0 ([14]; MCF7, 2 × IC50, 48 h (untreated 21%)): 59%; CFSE median fluorescence normalized to T0 ([14]; MCF7, 2 × IC50, 72 h (untreated 10%)): 47%; Effect on cell proliferation (CFSE) ([14]; MCF7, IC50 and 2 × IC50, 24 h, 48 h, 72 h): highest effect; CFSE median fluorescence normalized to T0 ([14]; MCF7, IC50 concentration, 24 h (untreated 37%)): 53%; CFSE median fluorescence normalized to T0 ([14]; MCF7, IC50 concentration, 48 h (untreated 21%)): 50%; CFSE median fluorescence normalized to T0 ([14]; MCF7, IC50 concentration, 72 h (untreated 10%)): 41%
				CCN=c1cc2oc3cc(NCCCC(=O)OCC)c4ccccc4c3nc-2cc1C [BaP1]			1.05	25 µM (≈ 10.4 µg/mL)			IC50 [15]: 12.8 ± 2.05 µM; IC50 [16]: 1.4 ± 0.08 µM; IC50 [17]: 1.73 ± 0.03 µM; IC50 [18]: 1.83 ± 0.06 µM; IC50 [19]: 1.9 ± 0.09 µM; IC50 [20]: 0.92 ± 0.07 µM; IC50 [21]: 5.6 ± 0.19 µM
